Assay results: ChEMBL document CHEMBL2401674, “Inhibition of Candida albicans isocitrate lyase activity by cadiolides and synoilides from the ascidian Synoicum sp” (Bioorg Med Chem Lett, 2013)
Active and inactive are the calls of the source. The calls are words filed in the database; no cut-off is given here.

Legend:
[1] = test system: Candida albicans; assay: Antifungal activity against Candida albicans SC5314 assessed as growth inhibition after 48 hrs in presence of 2% potassium acetate; assay type: functional; conditions: SC5314, 48 h
[2] = test system: Candida albicans; assay: Antifungal activity against Candida albicans SC5314 assessed as growth inhibition after 48 hrs in presence of 2% glucose; assay type: functional; conditions: SC5314, 48 h
[3] = biological target: Isocitrate lyase (Candida albicans, UniProt Q9P8Q7); assay: Inhibition of recombinant Candida albicans ATCC 10231 ICL using phenylhydrazine and isocitrate as substrate assessed as formation of glyoxylate phenylhydrazone after 30 mins by spectrophotometric analysis
[4] = test system: Candida albicans; assay: Downregulation of mRNA expression in icl-deficient Candida albicans MRC11 expressing ICL at 12.5 ug/ml after 4 hrs by RT-PCR analysis relative to control; assay type: functional
[5] = test system: Candida albicans; assay: Downregulation of mRNA expression in wild type Candida albicans SC5314 at 12.5 ug/ml after 4 hrs by RT-PCR analysis relative to control; assay type: functional
[6] = test system: Candida albicans; assay: Antifungal activity against icl-deficient Candida albicans MRC11 expressing ICL assessed as growth inhibition at 12.5 ug/ml after 3 days in presence of sodium acetate; assay type: functional, organism-based
[7] = test system: Candida albicans; assay: Antifungal activity against icl-deficient Candida albicans MRC10 assessed as growth inhibition at 12.5 ug/ml after 3 days in presence of sodium acetate; assay type: functional, organism-based
[8] = test system: Candida albicans; assay: Antifungal activity against wild type Candida albicans SC5314 assessed as growth inhibition at 12.5 ug/ml after 3 days in presence of sodium acetate; assay type: functional, organism-based
[9] = test system: Candida albicans; assay: Antifungal activity against icl-deficient Candida albicans MRC11 expressing ICL assessed as growth inhibition at 12.5 ug/ml after 3 days in presence of glucose; assay type: functional, organism-based
[10] = test system: Candida albicans; assay: Antifungal activity against icl-deficient Candida albicans MRC10 assessed as growth inhibition at 12.5 ug/ml after 3 days in presence of glucose; assay type: functional, organism-based
[11] = test system: Candida albicans; assay: Antifungal activity against wild type Candida albicans SC5314 assessed as growth inhibition at 12.5 ug/ml after 3 days in presence of glucose; assay type: functional, organism-based

Sequence of Isocitrate lyase (Q9P8Q7 whole entry): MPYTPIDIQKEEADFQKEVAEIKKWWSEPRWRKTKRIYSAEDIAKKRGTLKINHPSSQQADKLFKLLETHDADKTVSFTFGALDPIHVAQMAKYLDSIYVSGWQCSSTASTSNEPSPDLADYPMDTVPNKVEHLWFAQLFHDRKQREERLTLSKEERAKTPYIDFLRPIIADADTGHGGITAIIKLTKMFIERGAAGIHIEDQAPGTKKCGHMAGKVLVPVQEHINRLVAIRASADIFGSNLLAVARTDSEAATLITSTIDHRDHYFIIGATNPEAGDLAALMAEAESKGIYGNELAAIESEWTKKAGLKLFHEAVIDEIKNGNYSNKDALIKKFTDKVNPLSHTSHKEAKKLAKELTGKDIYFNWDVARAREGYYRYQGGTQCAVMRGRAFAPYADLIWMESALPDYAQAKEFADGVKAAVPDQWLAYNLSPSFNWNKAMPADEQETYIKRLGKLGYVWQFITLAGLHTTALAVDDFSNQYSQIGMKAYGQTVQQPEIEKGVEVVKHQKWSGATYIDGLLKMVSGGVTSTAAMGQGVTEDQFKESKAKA

MIC [1] | MIC [2] | IC50 [3] | Structure (SMILES) | fold change (FC) [4] | fold change (FC) [5] | growth inhibition (GI) [6] | growth inhibition (GI) [7] | growth inhibition (GI) [8] | growth inhibition (GI) [9] | growth inhibition (GI) [10] | growth inhibition (GI) [11]
100 µg/mL | > 200 µg/mL | 75.2 µM | COC(=O)/C(C(=O)c1cc(Br)c(O)c(Br)c1)=C(\C(=O)OC)c1cc(Br)c(O)c(Br)c1 |  |  |  |  |  |  |  | 
12.5 µg/mL | > 200 µg/mL | 7.62 µM | O=C1O/C(=C\c2cc(Br)c(O)c(Br)c2)C(c2ccc(O)c(Br)c2)=C1C(=O)c1cc(Br)c(O)c(Br)c1 [CADIOLIDE E] | 5 | 5 | Active | Active | Active | inactive | inactive | inactive
50 µg/mL | > 200 µg/mL | 17.2 µM | COc1ccc(/C=C2\OC(=O)C([C@@H](O)c3cc(Br)c(OC)c(Br)c3)=C2c2cc(Br)c(O)c(Br)c2)cc1 |  |  |  |  |  |  |  | 
50 µg/mL | > 200 µg/mL | 48.8 µM | COc1c(Br)cc([C@H](O)C2=C(c3ccc(O)c(Br)c3)/C(=C/c3ccc(O)c(Br)c3)OC2=O)cc1Br [CADIOLIDE G] |  |  |  |  |  |  |  | 
100 µg/mL | > 200 µg/mL | 122 µM | COC(=O)/C(C(=O)c1cc(Br)c(O)c(Br)c1)=C(\C(=O)OC)c1ccc(O)c(Br)c1 |  |  |  |  |  |  |  | 
50 µg/mL | > 200 µg/mL | 10.4 µM | COC(=O)C1=C(c2cc(Br)c(O)c(Br)c2)C(=O)OC1=C(c1cc(Br)c(O)c(Br)c1)c1cc(Br)c(O)c(Br)c1 [CADIOLIDE I] |  |  |  |  |  |  |  | 
1.56 µg/mL | 1.56 µg/mL |  | C[C@@H]1[C@H](O)[C@@H](C)/C=C/C=C/C=C/C=C/C=C/C=C/C=C/[C@H](O[C@@H]2O[C@H](C)[C@@H](O)[C@H](N)[C@@H]2O)C[C@@H]2O[C@](O)(C[C@@H](O)C[C@@H](O)[C@H](O)CC[C@@H](O)C[C@@H](O)CC(=O)O[C@H]1C)C[C@H](O)[C@H]2C(=O)O [AMPHOTERICIN B] |  |  |  |  |  |  |  | 

Structure (SMILES) | MIC [1] | MIC [2] | IC50 [3] | fold change (FC) [4] | fold change (FC) [5] | growth inhibition (GI) [6] | growth inhibition (GI) [7] | growth inhibition (GI) [8] | growth inhibition (GI) [9] | growth inhibition (GI) [10] | growth inhibition (GI) [11]
O=C(O)CC[N+](=O)[O-] | 200 µg/mL | > 200 µg/mL | 13.9 µM |  |  |  |  |  |  |  | 
